Source: US8481571B2, “Anti-coronavirus compounds” (Academia Sinica, priority 2004, dated 2013)

Key:
[1] = system: severe acute respiratory syndrome virus; test: organism not typed; type: cell-based; details: Vero C1008

For `CC(C)[C@H](NC(=O)OCc1ccccc1)C(=O)N[C@@H](Cc1ccccc1)[C@@H](O)[C@H](O)[C@H](Cc1ccccc1)NC(=O)[C@@H](NC(=O)OC(C)(C)C)C(C)C` [Compound 1], the EC50 [1] was 0.85 to 100 µM and the “inhibitory effect on cell growth” value (Vero E6 cells) was “none of them exhibited inhibitory effect on cell growth”.
With `CC(C)[C@H](NC(=O)[C@H](C)NC(=O)OCc1ccccc1)C(=O)N[C@@H](Cc1ccccc1)[C@@H](O)[C@H](O)[C@H](Cc1ccccc1)NC(=O)[C@@H](NC(=O)[C@H](C)NC(=O)OCc1ccccc1)C(C)C` [Compound 2] the EC50 [1] was 0.85 to 100 µM and the “inhibitory effect on cell growth” value (Vero E6 cells) was “none of them exhibited inhibitory effect on cell growth”.
In the case of `CCCCCCC1=C2C[C@H]3C(C)(C)C[C@@H](OC1=O)[C@@]23C` [Compound 3], the EC50 [1] is reported as 0.85 to 100 µM and the “inhibitory effect on cell growth” value (Vero E6 cells) is reported as “none of them exhibited inhibitory effect on cell growth”.
With `CCCCCC12C3=C(c4ccccc4)C(=O)O[C@@H]1CC[C@@H]2C3` (stereo partly shown) [Compound 4] the EC50 [1] was 0.85 to 100 µM and the “inhibitory effect on cell growth” value (Vero E6 cells) was “none of them exhibited inhibitory effect on cell growth”.
`CC(C)=CCC[C@](C)(O)[C@H]1CC[C@@H]2[C@@H]1CC[C@H]1[C@@]2(C)CC[C@H]2C(C)(C)C(=O)CC[C@]12C` [Compound 6] was tested, and the EC50 [1] was 0.85 to 100 µM and the “inhibitory effect on cell growth” value (Vero E6 cells) was “none of them exhibited inhibitory effect on cell growth”.
For `COC(=O)CCCN1C[C@H](OCc2ccccc2)[C@@H](OCc2ccccc2)[C@H](OCc2ccccc2)[C@H]1COCc1ccccc1` [Compound 9], the EC50 [1] was 0.85 to 100 µM and the “inhibitory effect on cell growth” value (Vero E6 cells) was “none of them exhibited inhibitory effect on cell growth”.
With `CC[C@H]1OC(=O)[C@H](C)C(=O)[C@H](C)[C@@H](O[C@@H]2C[C@H](C)C[C@H](N(C)C)[C@H]2O)[C@@](C)(OC)C[C@@H](C)CN(C(=O)CCCn2cc(-c3ccc(C(F)(F)F)cc3)nn2)[C@H](C)[C@@H](O)[C@]1(C)O` [Compound 11] the EC50 [1] was 0.85 to 100 µM and the “inhibitory effect on cell growth” value (Vero E6 cells) was “none of them exhibited inhibitory effect on cell growth”.
With `COC(=O)[C@H]1[C@H]2C[C@@H]3c4[nH]c5cc(OC)ccc5c4CCN3C[C@H]2C[C@@H](OC(=O)c2cc(OC)c(OC)c(OC)c2)[C@@H]1OC` [Compound 13] the EC50 [1] was 0.85 to 100 µM and the “inhibitory effect on cell growth” value (Vero E6 cells) was “none of them exhibited inhibitory effect on cell growth”.
In the case of `O[C@H]1[C@H](O)[C@@H](OCc2cccc(F)c2)CNC[C@@H]1OCc1cccc(F)c1` [Compound 15], the EC50 [1] is reported as 0.85 to 100 µM and the “inhibitory effect on cell growth” value (Vero E6 cells) is reported as “none of them exhibited inhibitory effect on cell growth”.
`CC1(C)CCC2(C(=O)O)CC[C@@]3(C)C(=CCC4[C@@]5(C)CCC(O[C@@H]6OC(O)[C@@H](O)[C@@H](O)C6O[C@@H]6OC(O)[C@@H](O)[C@@H](O)C6O)C(C)(CO)C5CC[C@]43C)C2C1` (stereo partly shown) [Compound 16] was tested, and the EC50 [1] was 0.85 to 100 µM.
For `CC(C)=CCC[C@](C)(CO[C@@H]1OC(CO[C@@H]2OC(CO)[C@@H](O)[C@@H](O)C2O)[C@@H](O)[C@@H](O)C1O)C1CC[C@@]2(C)C1C(O)CC1[C@@]3(C)CCC(O[C@@H]4OC(CO)[C@@H](O)[C@@H](O)C4O[C@@H]4OC(CO)[C@@H](O)[C@@H](O)C4O)C(C)(C)C3CC[C@]12C` (stereo partly shown) [Compound 17], the EC50 [1] was 0.85 to 100 µM.
In the case of `CC1(C)CC2C3=CCC4[C@@](C)(CCC5[C@@H](O)C(O[C@@H]6OC(CO)[C@@H](O)[C@@H](O)C6O[C@@H]6OC(CO)[C@@H](O)[C@@H](O)C6O)CC[C@@]54C)C3CC[C@@]2(C)[C@H](O)C1` (stereo partly shown) [Compound 18], the EC50 [1] is reported as 0.85 to 100 µM.
With `COC(=O)[C@H]1[C@H]2C[C@@H]3c4[nH]c5cc(OC)ccc5c4CCN3C[C@H]2C[C@@H](OC(=O)/C=C/c2cc(OC)c(OC)c(OC)c2)[C@@H]1OC` [Compound 19] the EC50 [1] was 0.85 to 100 µM.
`COC(=O)C1=COC[C@H]2CN3CCc4c([nH]c5ccccc45)[C@@H]3C[C@H]12` [Compound 20] showed an EC50 [1] of 0.85 to 100 µM.
With `COC(=O)[C@H]1[C@H]2C[C@H]3c4[nH]c5cc(OC)ccc5c4CCN3C[C@H]2C[C@@H](OC(=O)c2cc(OC)c(OC)c(OC)c2)[C@@H]1OC` [Compound 21] the EC50 [1] was 0.85 to 100 µM.
`COC(=O)[C@H]1[C@H]2C[C@H]3c4[nH]c5ccccc5c4CCN3C[C@@H]2CC[C@@H]1O` [Compound 22] was tested, and the EC50 [1] was 0.85 to 100 µM.
`COC(=O)C1[C@H]2C[C@H]3c4[nH]c5ccccc5c4CCN3C[C@H]2CC[C@@H]1O` (stereo partly shown) [Compound 23] showed an EC50 [1] of 0.85 to 100 µM.
In the case of `COC(=O)[C@@H]1[C@H]2C[C@H]3c4[nH]c5ccccc5c4CCN3C[C@@H]2CC[C@@H]1O` [Compound 24], the EC50 [1] is reported as 0.85 to 100 µM.
In the case of `Cc1cccc(C)c1OCC(=O)N[C@@H](Cc1ccccc1)C[C@H](O)[C@H](Cc1ccccc1)NC(=O)[C@H](CC(C)C)NC(=O)c1ccc([N+](=O)[O-])o1` [Compound 25], the EC50 [1] is reported as 0.85 to 100 µM.
`Cc1cccc(C(=O)N[C@@H](CC(C)C)C(=O)N[C@@H](Cc2ccccc2)[C@@H](O)C[C@H](Cc2ccccc2)NC(=O)COc2c(C)cccc2C)c1` [Compound 27] showed an EC50 [1] of 0.85 to 100 µM.
For `Cc1cccc(C)c1OCC(=O)N[C@@H](Cc1ccccc1)C[C@H](O)[C@H](Cc1ccccc1)NC(=O)[C@H](CC(C)C)NC(=O)CSc1ccccn1` [Compound 28], the EC50 [1] was 0.85 to 100 µM.
`Cc1cccc(C)c1OCC(=O)N[C@@H](Cc1ccccc1)C[C@H](O)[C@H](Cc1ccccc1)NC(=O)[C@H](CC(C)C)NC(=O)c1cc2ccccc2[nH]1` [Compound 29] gave an EC50 [1] of 0.85 to 100 µM.
Work on `Cc1cccc(C)c1OCC(=O)N[C@@H](Cc1ccccc1)C[C@H](O)[C@H](Cc1ccccc1)NC(=O)[C@H](CC(C)C)NC(=O)CN1C(=O)CSC1=S` [Compound 30] yielded an EC50 [1] of 0.85 to 100 µM.
`Cc1cccc(C)c1OCC(=O)N[C@@H](Cc1ccccc1)C[C@H](O)[C@H](Cc1ccccc1)NC(=O)[C@H](CC(C)C)NC(=O)c1ccc(C(F)(F)F)cc1` [Compound 31] was tested, and the EC50 [1] was 0.85 to 100 µM.
`COc1ccc(/C=C/C(=O)N[C@@H](CC(C)C)C(=O)N[C@@H](Cc2ccccc2)[C@@H](O)C[C@H](Cc2ccccc2)NC(=O)COc2c(C)cccc2C)cc1` [Compound 32] showed an EC50 [1] of 0.85 to 100 µM.
For `Cc1cccc(C)c1OCC(=O)N[C@@H](Cc1ccccc1)C[C@H](O)[C@H](Cc1ccccc1)NC(=O)[C@H](CC(C)C)NC(=O)CCNC(=O)OC(C)(C)C` [Compound 33], the EC50 [1] was 0.85 to 100 µM.
In the case of `Cc1cccc(C)c1OCC(=O)N[C@@H](Cc1ccccc1)C[C@H](O)[C@H](Cc1ccccc1)NC(=O)[C@H](CC(C)C)NC(=O)C1=CCOc2ccc(Cl)cc21` [Compound 34], the EC50 [1] is reported as 0.85 to 100 µM.
With `Cc1cccc(C)c1OCC(=O)N[C@@H](Cc1ccccc1)C[C@H](O)[C@H](Cc1ccccc1)NC(=O)[C@H](CC(C)C)NC(=O)COc1ccc2ccccc2c1` [Compound 35] the EC50 [1] was 0.85 to 100 µM.
